Laboratory results: patent US12264134B2 (Merck Sharp & Dohme LLC, priority 2018, dated 2025)

Target: IDO1 (Homo sapiens, UniProt P14902)
Assay: IDO1 Cellular Assay in HeLa Cells Stimulated with IFNγ
Type: cell-based
Settings: read-out: HeLa Cell Potency, IC50

Chain of IDO1 (P14902 whole entry): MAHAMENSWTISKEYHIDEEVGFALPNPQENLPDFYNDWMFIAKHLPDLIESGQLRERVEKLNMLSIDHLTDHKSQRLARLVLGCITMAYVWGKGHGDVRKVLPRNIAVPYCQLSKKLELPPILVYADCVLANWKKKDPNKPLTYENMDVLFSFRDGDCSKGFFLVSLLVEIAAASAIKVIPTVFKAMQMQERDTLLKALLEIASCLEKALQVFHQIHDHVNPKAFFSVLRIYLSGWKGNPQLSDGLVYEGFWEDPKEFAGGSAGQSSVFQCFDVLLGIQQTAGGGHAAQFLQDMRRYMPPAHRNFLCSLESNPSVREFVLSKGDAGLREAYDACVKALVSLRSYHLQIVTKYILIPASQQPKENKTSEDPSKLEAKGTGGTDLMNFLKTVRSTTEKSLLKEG

IC50 [nM]	Structure (SMILES)
28.6	Cc1cccc(N2CCN(C(=O)Cn3nc(C(=O)N4CCC(O)(c5ccccc5)CC4)c4c3CCC4)CC2)c1C [Example 111, 1-[4-(2,3-dimethylphenyl)piperazin-1-yl]-2-[3-(4-hydroxy-4-phenylpiperidine-1-carbonyl)-5,6-dihydrocyclopenta[c]pyrazol-1(4H)-yl]ethan-1-one]
3.6	Cc1cccc(N2CCN(C(=O)Cn3nc(C(=O)N4CCC(O)C5CCCCC54)c4c3CCC4)CC2)c1C (stereo not shown) [Example 112, 1-[4-(2,3-dimethylphenyl)piperazin-1-yl]-2-[3-(4-hydroxyoctahydroquinoline-1(2H)-carbonyl)-5,6-dihydrocyclopenta[c]pyrazol-1(4H)-yl]ethan-1-one]
372	Cc1cccc(N2CCN(C(=O)Cn3nc(C(=O)N4CCC(O)(CN(C)C)CC4)c4c3CCC4)CC2)c1C [Example 113, 2-[3-{4-[(dimethylamino)methyl]-4-hydroxypiperidine-1-carbonyl}-5,6-dihydrocyclopenta[c]pyrazol-1(4H)-yl]-1-[4-(2,3-dimethylphenyl)piperazin-1-yl]ethan-1-one]
6.33	Cc1cccc(N2CCN(C(=O)Cn3nc(C(=O)N4CCC5(CC4)COCC5O)c4c3CCC4)CC2)c1C (stereo not shown) [Example 114, 1-[4-(2,3-dimethylphenyl)piperazin-1-yl]-2-[3-(4-hydroxy-2-oxa-8-azaspiro[4.5]decane-8-carbonyl)-5,6-dihydrocyclopenta[c]pyrazol-1(4H)-yl]ethan-1-one]
176	Cc1cccc(N2CCN(C(=O)Cn3nc(C(=O)N4[C@@H](C)COC[C@@H]4C)c4c3CCC4)CC2)c1C [Example 115, 2-{3-[(3S,5S)-3,5-dimethylmorpholine-4-carbonyl]-5,6-dihydrocyclopenta[c]pyrazol-1(4H)-yl}-1-[4-(2,3-dimethylphenyl)piperazin-1-yl]ethan-1-one]
11.6	Cc1cccc(N2CCN(C(=O)Cn3nc(C(=O)N4CC5CCC4CC5)c4c3CCC4)CC2)c1C [Example 116, 2-[3-(2-azabicyclo[2.2.2]octane-2-carbonyl)-5,6-dihydrocyclopenta[c]pyrazol-1(4H)-yl]-1-[4-(2,3-dimethylphenyl)piperazin-1-yl]ethan-1-one]
15.1	Cc1cccc(N2CCN(C(=O)Cn3nc(C(=O)N4CCN(C(=O)C(C)(C)O)CC4)c4c3CCC4)CC2)c1C [Example 117, 1-[4-(1-{2-[4-(2,3-dimethylphenyl)piperazin-1-yl]-2-oxoethyl}-1,4,5,6-tetrahydrocyclopenta[c]pyrazole-3-carbonyl)piperazin-1-yl]-2-hydroxy-2-methylpropan-1-one]
13.9	Cc1cccc(N2CCN(C(=O)Cn3nc(C(=O)N4CCCC(O)CC4)c4c3CCC4)CC2)c1C (stereo not shown) [Example 118]
33.3	Cc1cccc(N2CCN(C(=O)Cn3nc(C(=O)N4CCC(O)CC4(C)C)c4c3CCC4)CC2)c1C (stereo not shown) [Example 119, 1-[4-(2,3-dimethylphenyl)piperazin-1-yl]-2-[3-(4-hydroxy-2,2-dimethylpiperidine-1-carbonyl)-5,6-dihydrocyclopenta[c]pyrazol-1(4H)-yl]ethan-1-one]
17.1	Cc1cccc(N2CCN(C(=O)Cn3nc(C(=O)N4CCC5(CC4)CC(=O)N(C)C5)c4c3CCC4)CC2)c1C [Example 121, 8-(1-{2-[4-(2,3-dimethylphenyl)piperazin-1-yl]-2-oxoethyl}-1,4,5,6-tetrahydrocyclopenta[c]pyrazole-3-carbonyl)-2-methyl-2,8-diazaspiro[4.5]decan-3-one]
10.3	Cc1cccc(N2CCN(C(=O)Cn3nc(C(=O)N4CC[C@H](CO)[C@H](F)C4)c4c3CCC4)CC2)c1C [Example 122, 1-[4-(2,3-dimethylphenyl)piperazin-1-yl]-2-{3-[(3S,4R)-3-fluoro-4-(hydroxymethyl)piperidine-1-carbonyl]-5,6-dihydrocyclopenta[c]pyrazol-1(4H)-yl}ethan-1-one]
10.1	Cc1cccc(N2CCN(C(=O)Cn3nc(C(=O)N4CCN(C5CC5)CC4)c4c3CCC4)CC2)c1C [Example 123, 2-[3-(4-cyclopropylpiperazine-1-carbonyl)-5,6-dihydrocyclopenta[c]pyrazol-1(4H)-yl]-1-[4-(2,3-dimethylphenyl)piperazin-1-yl]ethan-1-one]
23.2	Cc1cccc(N2CCN(C(=O)Cn3nc(C(=O)N4CC5C(CO)C5C4)c4c3CCC4)CC2)c1C (stereo not shown) [Example 131, 1-[4-(2,3-dimethylphenyl)piperazin-1-yl]-2-{3-[6-(hydroxymethyl)-3-azabicyclo[3.1.0]hexane-3-carbonyl]-5,6-dihydrocyclopenta[c]pyrazol-1(4H)-yl}ethan-1-one]
4.55	Cc1cccc(N2CCN(C(=O)Cn3nc(C(=O)N4CCC(n5cncn5)CC4)c4c3CCC4)CC2)c1C [Example 132, 1-[4-(2,3-dimethylphenyl)piperazin-1-yl]-2-{3-[4-(1H-1,2,4-triazol-1-yl)piperidine-1-carbonyl]-5,6-dihydrocyclopenta[c]pyrazol-1(4H)-yl}ethan-1-one]
141	Cc1cccc(N2CCN(C(=O)Cn3nc(C(=O)N4CCC5(CC4)NC(=O)NC5=O)c4c3CCC4)CC2)c1C [Example 133, 8-(1-{2-[4-(2,3-dimethylphenyl)piperazin-1-yl]-2-oxoethyl}-1,4,5,6-tetrahydrocyclopenta[c]pyrazole-3-carbonyl)-1,3,8-triazaspiro[4.5]decane-2,4-dione]
15.8	CC1=NC2(CCN(C(=O)c3nn(CC(=O)N4CCN(c5cccc(C)c5C)CC4)c4c3CCC4)CC2)C(=O)N1 [Example 134, 8-(1-{2-[4-(2,3-dimethylphenyl)piperazin-1-yl]-2-oxoethyl}-1,4,5,6-tetrahydrocyclopenta[c]pyrazole-3-carbonyl)-2-methyl-1,3,8-triazaspiro[4.5]dec-1-en-4-one]
38.5	Cc1cccc(N2CCN(C(=O)Cn3nc(C(=O)N4CCC5(CC4)C[C@H](C)OC5=O)c4c3CCC4)CC2)c1C [Example 135, (3S)-8-(1-{2-[4-(2,3-dimethylphenyl)piperazin-1-yl]-2-oxoethyl}-1,4,5,6-tetrahydrocyclopenta[c]pyrazole-3-carbonyl)-3-methyl-2-oxa-8-azaspiro[4.5]decan-1-one]
21.2	CNC(=O)C1CCN(C(=O)c2nn(CC(=O)N3CCN(c4cccc(C)c4C)CC3)c3c2CCC3)CC1 [Example 136, 1-(1-{2-[4-(2,3-dimethylphenyl)piperazin-1-yl]-2-oxoethyl}-1,4,5,6-tetrahydrocyclopenta[c]pyrazole-3-carbonyl)-N-methylpiperidine-4-carboxamide]
19.3	Cc1cccc(N2CCN(C(=O)Cn3nc(C(=O)N4CCC(C(N)=O)CC4)c4c3CCC4)CC2)c1C [Example 137, 1-(1-{2-[4-(2,3-dimethylphenyl)piperazin-1-yl]-2-oxoethyl}-1,4,5,6-tetrahydrocyclopenta[c]pyrazole-3-carbonyl)piperidine-4-carboxamide]
3.92	Cc1cccc(N2CCN(C(=O)Cn3nc(C(=O)N4CCC(n5nccn5)CC4)c4c3CCC4)CC2)c1C [Example 138, 1-[4-(2,3-dimethylphenyl)piperazin-1-yl]-2-{3-[4-(2H-1,2,3-triazol-2-yl)piperidine-1-carbonyl]-5,6-dihydrocyclopenta[c]pyrazol-1(4H)-yl}ethan-1-one]
6.98	Cc1cccc(N2CCN(C(=O)Cn3nc(C(=O)N4CCC(S(C)(=O)=O)CC4)c4c3CCC4)CC2)c1C [Example 139, 1-[4-(2,3-dimethylphenyl)piperazin-1-yl]-2-{3-[4-(methylsulfonyl)piperidine-1-carbonyl]-5,6-dihydrocyclopenta[c]pyrazol-1(4H)-yl}ethan-1-one]
7.33	Cc1cccc(N2CCN(C(=O)Cn3nc(C(=O)N4CCC5(CCC(=O)N5C)CC4)c4c3CCC4)CC2)c1C [Example 140, 8-(1-{2-[4-(2,3-dimethylphenyl)piperazin-1-yl]-2-oxoethyl}-1,4,5,6-tetrahydrocyclopenta[c]pyrazole-3-carbonyl)-1-methyl-1,8-diazaspiro[4.5]decan-2-one]
1.9	Cc1cccc(N2CCN(C(=O)Cn3nc(C(=O)N4CCC5(CC4)CC5CO)c4c3CCC4)CC2)c1C (stereo not shown) [Example 143, 1-[4-(2,3-dimethylphenyl)piperazin-1-yl]-2-{3-[1-(hydroxymethyl)-6-azaspiro[2.5]octane-6-carbonyl]-5,6-dihydrocyclopenta[c]pyrazol-1(4H)-yl}ethan-1-one]
1.58	Cc1cccc(N2CCN(C(=O)Cn3nc(C(=O)N4CCC(C(C)(C)O)CC4)c4c3CCC4)CC2)c1C [Example 144, 1-[4-(2,3-dimethylphenyl)piperazin-1-yl]-2-{3-[4-(2-hydroxypropan-2-yl)piperidine-1-carbonyl]-5,6-dihydrocyclopenta[c]pyrazol-1(4H)-yl}ethan-1-one]
1.77	Cc1cccc(N2CCN(C(=O)Cn3nc(C(=O)N4CCC(c5cc[nH]n5)CC4)c4c3CCC4)CC2)c1C [Example 145, 1-[4-(2,3-dimethylphenyl)piperazin-1-yl]-2-{3-[4-(1H-pyrazol-3-yl)piperidine-1-carbonyl]-5,6-dihydrocyclopenta[c]pyrazol-1(4H)-yl}ethan-1-one]
7.98	Cc1cccc(N2CCN(C(=O)Cn3nc(C(=O)N4CCC(O)C(CO)C4)c4c3CCC4)CC2)c1C (stereo not shown) [Example 148, 1-[4-(2,3-dimethylphenyl)piperazin-1-yl]-2-{3-[4-hydroxy-3-(hydroxymethyl)piperidine-1-carbonyl]-5,6-dihydrocyclopenta[c]pyrazol-1(4H)-yl}ethan-1-one]
3.96	Cc1cccc(N2CCN(C(=O)Cn3nc(C(=O)N4CCC(O)C(F)(F)C4)c4c3CCC4)CC2)c1C (stereo not shown) [Example 149, 2-[3-(3,3-difluoro-4-hydroxypiperidine-1-carbonyl)-5,6-dihydrocyclopenta[c]pyrazol-1(4H)-yl]-1-[4-(2,3-dimethylphenyl)piperazin-1-yl]ethan-1-one]
18.5	Cc1cccc(N2CCN(C(=O)Cn3nc(C(=O)N4C5CCC4CC(O)C5)c4c3CCC4)CC2)c1C (stereo not shown) [Example 150, 1-[4-(2,3-dimethylphenyl)piperazin-1-yl]-2-[3-(3-hydroxy-8-azabicyclo[3.2.1]octane-8-carbonyl)-5,6-dihydrocyclopenta[c]pyrazol-1(4H)-yl]ethan-1-one]
